Read-outs that look alike come from different tables or passages of the source.
Legend:
LNCaP tumor xenografts = conditions: for Biodistribution Blood / Biodistribution Bone / Biodistribution Heart / Biodistribution Intestine / Biodistribution Kidneys / Biodistribution LNCAP-tumor / Biodistribution Liver / Biodistribution Lung / Biodistribution Muscle / Biodistribution Prostate / Biodistribution Spleen / Biodistribution Thyroid: i.v. 30 pmol, n=5
LNCaP cells [1] = test: Internalization in LNCaP cells; type: cell-based; conditions: n=3
Procedure: (§1) The cell binding determined in these experiments is the sum of specific and nonspecific cell binding. To determine the values for nonspecific cell binding and internalization, all experiments were additionally performed in the presence of 2-PMPA.
(§2) The plates were incubated for 1 h; after which, 0.75 pmol of the radiotracer to be examined was added to 1 ml of fresh medium. The cells were incubated for 30 min, 1, 2, 3, and 5 h. At each time point, the supernatant was removed and the cells washed with 1 ml of PBS. To dissociate the receptor-bound radioligand, the cells were washed twice with 1 ml of a 0.1 M glycine buffer solution at pH 2.8 for 5 min. The 0.1 M glycine–HCl buffer dissociated all the surface-bound complexes. The cells were then washed with 1 ml of PBS, and the internalized fraction was determined by solubilizing the cells with 1 ml of 1 M NaOH and incubating them for 10 min at room temperature. The radioactivity collected from the culture medium, 0.1 M glycine (surface-bound), and 1 M NaOH (internalized fraction) was measured in a gamma counter and decay-corrected. Cell binding was calculated from the surface-bound (0.1 M glycine) and the internalized fraction (1 M NaOH). The internalized fraction was expressed as a percentage of cell binding (internalization to cell-bound radioactivity ratio). All cell uptake experiments were run in triplicate.

PSMA = biological target: T1, PSMA (Homo sapiens, UniProt Q04609); test: Equilibrium dissociation constant Kd / Bmax, saturation binding on PSMA-positive LNCaP cells; conditions: for Kd: 3 h incubation, 0.25-75 nM, nonspecific binding with 2-PMPA
T1 construct: host or cells: LNCaP cells
Procedure: The equilibrium dissociation constant describing the interaction of the radiolabeled ligands with the PSMA binding sites was determined in PSMA-positive LNCaP cell lines (Cell Line Service, Eppelheim, Germany). LNCaP cells were seeded at a density of 10^6 cells/well on a 6-well plate (Corning, ME, USA) and incubated under 5% CO2 at 37 °C for 48 h with medium (minimum essential medium Eagle supplemented with 2 mM L-glutamine, 0.1 mM non-essential amino acids (NEAA), 1.0 mM sodium pyruvate, 10% fetal bovine serum, 100 U/ml penicillin, and 100 µg/ml streptomycin) (Lonza, Verviers, Belgium) in a humidified incubator (Thermo Heracell 150 CO2-Incubator, MA, USA). To determine the nonspecific binding, the medium was removed from selected wells, and 1 ml of a solution of 0.1 mM of 2-(phosphonomethyl)-pentanedioic acid (2-PMPA) in fresh medium was added. […] The plates were then incubated under 5% CO2, at 37 °C for 1 h. After that, the medium was removed and the cells incubated under the same incubation conditions for 3 h with different concentrations (0.25 nM, 2.5 nM, 5 nM, 10 nM, 25 nM, 50 nM, and 75 nM) of the radiotracer under investigation in 1 ml fresh medium.
After 3 h, the cells were washed three times with 1 ml PBS, and the cells were finally lysed by adding 1 ml of 1 M NaOH and incubating them for 10 min at room temperature. All samples were measured with a gamma counter (Nuklear Medizintechnik Dresden Isomed 100, Dresden, Germany) and were decay-corrected. The equilibrium dissociation constant (Kd) and the maximum density of receptors (Bmax) were calculated by non-linear regression using GraphPad Prism 8.0.2 (GraphPad Software, San Diego, USA).

LNCaP cells [2] = test: Cellular uptake (specific cell binding) in LNCaP cells; type: cell-based; conditions: n=3
Procedure: as §1, §2

T1 sequence (Q04609 whole entry): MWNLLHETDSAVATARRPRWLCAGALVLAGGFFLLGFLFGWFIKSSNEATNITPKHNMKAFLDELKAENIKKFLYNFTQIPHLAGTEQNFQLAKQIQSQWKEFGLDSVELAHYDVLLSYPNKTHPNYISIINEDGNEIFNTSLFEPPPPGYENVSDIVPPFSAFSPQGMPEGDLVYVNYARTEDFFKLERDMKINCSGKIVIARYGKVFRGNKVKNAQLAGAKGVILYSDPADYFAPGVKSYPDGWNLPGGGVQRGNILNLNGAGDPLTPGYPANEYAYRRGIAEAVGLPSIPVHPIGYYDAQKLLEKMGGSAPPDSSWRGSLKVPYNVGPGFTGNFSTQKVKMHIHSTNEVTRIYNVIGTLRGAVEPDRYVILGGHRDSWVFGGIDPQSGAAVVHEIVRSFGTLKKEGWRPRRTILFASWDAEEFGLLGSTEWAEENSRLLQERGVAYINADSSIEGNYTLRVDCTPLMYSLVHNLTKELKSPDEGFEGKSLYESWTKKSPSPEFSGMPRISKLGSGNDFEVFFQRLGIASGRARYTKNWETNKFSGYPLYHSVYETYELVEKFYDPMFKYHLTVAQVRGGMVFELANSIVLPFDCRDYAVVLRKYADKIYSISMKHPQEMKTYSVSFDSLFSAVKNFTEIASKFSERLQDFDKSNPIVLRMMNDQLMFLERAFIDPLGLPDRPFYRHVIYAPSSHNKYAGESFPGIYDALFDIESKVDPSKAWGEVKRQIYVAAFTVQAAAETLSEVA

SMILES: O=C([O-])CN(CCN(CC(=O)[O-])Cc1cc(CCC(=O)NCCCCCC(=O)NCCCC[C@H](NC(=O)N[C@@H](CCC(=O)O)C(=O)O)C(=O)O)ccc1[O-])Cc1cc(CCC(=O)O)ccc1[O-].[68Ga+3].[OH3+] [[^68Ga]Ga-PSMA-11]
- Tumor/blood ratio (LNCaP tumor xenografts; 2 h p.i., LNCaP xenograft mice): 15 ± 3
- Tumor/kidneys ratio (LNCaP tumor xenografts; 2 h p.i., LNCaP xenograft mice): 0.09 ± 0.02
- Tumor/liver ratio (LNCaP tumor xenografts; 2 h p.i., LNCaP xenograft mice): 6.2 ± 1.0
- Tumor/muscle ratio (LNCaP tumor xenografts; 2 h p.i., LNCaP xenograft mice): 37 ± 8
- Biodistribution Blood (LNCaP tumor xenografts; 2 h p.i.): 1.34 ± 0.20 %ID/g
- Biodistribution Bone (LNCaP tumor xenografts; 2 h p.i.): 1.19 ± 0.31 %ID/g
- Biodistribution Heart (LNCaP tumor xenografts; 2 h p.i.): 1.10 ± 0.36 %ID/g
- Biodistribution Intestine (LNCaP tumor xenografts; 2 h p.i.): 1.50 ± 0.59 %ID/g
- Biodistribution Kidneys (LNCaP tumor xenografts; 2 h p.i.): 231 ± 41 %ID/g
- Biodistribution LNCAP-tumor (LNCaP tumor xenografts; 2 h p.i.): 19.4 ± 2.4 %ID/g
- Biodistribution Liver (LNCaP tumor xenografts; 2 h p.i.): 3.17 ± 0.18 %ID/g
- Biodistribution Lung (LNCaP tumor xenografts; 2 h p.i.): 3.27 ± 1.03 %ID/g
- Biodistribution Muscle (LNCaP tumor xenografts; 2 h p.i.): 0.54 ± 0.15 %ID/g
- Biodistribution Prostate (LNCaP tumor xenografts; 2 h p.i.): 4.09 ± 1.15 %ID/g
- Biodistribution Spleen (LNCaP tumor xenografts; 2 h p.i.): 40.9 ± 9.3 %ID/g
- Biodistribution Thyroid (LNCaP tumor xenografts; 2 h p.i.): 2.13 ± 0.27 %ID/g
- Tumor/kidneys ratio (LNCaP tumor xenografts; 4 h p.i., LNCaP xenograft mice): 0.10 ± 0.05
- Tumor/liver ratio (LNCaP tumor xenografts; 4 h p.i., LNCaP xenograft mice): 34.6 ± 6.6
- Biodistribution Blood (LNCaP tumor xenografts; 4 h p.i.): 0.21 ± 0.03 %ID/g
- Biodistribution Bone (LNCaP tumor xenografts; 4 h p.i.): 0.50 ± 0.19 %ID/g
- Biodistribution Heart (LNCaP tumor xenografts; 4 h p.i.): 1.35 ± 0.70 %ID/g
- Biodistribution Intestine (LNCaP tumor xenografts; 4 h p.i.): 0.65 ± 0.30 %ID/g
- Biodistribution Kidneys (LNCaP tumor xenografts; 4 h p.i.): 226 ± 25 %ID/g
- Biodistribution LNCAP-tumor (LNCaP tumor xenografts; 4 h p.i.): 23.2 ± 10.6 %ID/g
- Biodistribution Liver (LNCaP tumor xenografts; 4 h p.i.): 0.65 ± 0.21 %ID/g
- Biodistribution Lung (LNCaP tumor xenografts; 4 h p.i.): 1.23 ± 0.13 %ID/g
- Biodistribution Muscle (LNCaP tumor xenografts; 4 h p.i.): 0.42 ± 0.11 %ID/g
- Biodistribution Prostate (LNCaP tumor xenografts; 4 h p.i.): 1.67 ± 0.37 %ID/g
- Biodistribution Spleen (LNCaP tumor xenografts; 4 h p.i.): 62.5 ± 21.5 %ID/g
- Biodistribution Thyroid (LNCaP tumor xenografts; 4 h p.i.): 4.44 ± 2.9 %ID/g
- Specific internalized activity as percentage of specific cell-bound activity (LNCaP cells [1]; 0.5 h): 28.9±0.7%
- Specific internalized activity as percentage of specific cell-bound activity (LNCaP cells [1]; 1 h): 39.7±2.0%
- Specific internalized activity as percentage of specific cell-bound activity (LNCaP cells [1]; 2 h): 48.3±2.5%
- Specific internalized activity as percentage of specific cell-bound activity (LNCaP cells [1]; 3 h): 50.5±3.4%
- Specific internalized activity as percentage of specific cell-bound activity (LNCaP cells [1]; 5 h): 56.8±2.2 %
- Kd (PSMA): 5.15 ± 0.6 nM
- Bmax (maximum achievable concentration on 10^6 tumor cells) (PSMA; Scatchard plots): 1746 ± 53 fmol/10^6 cells
- Specific binding in LNCaP cells as percentage of total activity (LNCaP cells [2]; 0.5 h): 27.7±0.7%
- Specific binding in LNCaP cells as percentage of total activity (LNCaP cells [2]; 1 h): 35.3±3.1 %
- Specific binding in LNCaP cells as percentage of total activity (LNCaP cells [2]; 2 h): 42.0±1.2 %
- Specific binding in LNCaP cells as percentage of total activity (LNCaP cells [2]; 3 h): 46.3±2.1%
- Specific binding in LNCaP cells as percentage of total activity (LNCaP cells [2]; 5 h): 48.3±1.2%

SMILES: CC(=O)N1CCCCCNC(=O)CCC(=O)N2CCCCCNC(=O)CCC(=O)N(CCCCCNC(=O)CCC(=O)NCC3CCC(C(=O)NC(Cc4ccc5ccccc5c4)C(=O)NCCCCC(NC(=O)NC(CCC(=O)O)C(=O)O)C(=O)O)CC3)[O][Zr+]([O]1)[O]2 (stereo not shown) [[^89Zr]Zr-PSMA-DFO, [^89Zr]Zr-N-sucDf-AMCHA-2Nal-EuK]
- Kd (PSMA): 4.97 ± 0.57 nM

From article PMC8760230, “Translational Development of a Zr-89-Labeled Inhibitor of Prostate-specific Membrane Antigen for PET Imaging in Prostate Cancer” (Molecular Imaging and Biology, 2021)
